Source: the NIST ThermoML archive (doi:10.1016/j.jct.2013.07.011)
Numbers after ± are expanded uncertainties.

Conditions: 298.15 K; 101.33 kPa; Liquid; Vibrating tube method

Going from C1CCCCCCC1 [cyclooctane] to CCCCn1cc[n+](C)c1.COS(=O)(=O)[O-] [1-butyl-3-methylimidazolium methyl sulfate], the mass density rises from 831.47 ± 0.3 kg/m3 to 1212.59 ± 4 kg/m3.

Compared with Cc1ccccc1 [toluene], c1ccccc1 [benzene] is higher in mass density: 862.17 ± 0.11 kg/m3 for the first, 873.57 ± 0.11 kg/m3 for the second.

Compared with CCCCCCCC [octane], CCCCCCCCC [nonane] is higher in mass density: 698.6 ± 0.23 kg/m3 for the first, 713.99 ± 0.32 kg/m3 for the second.

For CCCC[n+]1ccn(C)c1.O=S(=O)([N-]S(=O)(=O)C(F)(F)F)C(F)(F)F, the mass density was 1436.35 ± 4 kg/m3.
